# Measurements: PMC3141655 (BMC Biochemistry, 2011)
# Where two headings read alike, the source gives them in different places.
# Experiments:
# [1] = target: T1, HiOASS (O-acetylserine sulfhydrylase) (Haemophilus influenzae, UniProt P45040); conditions: for TdS / ΔG / ΔH: 20 mM Tris pH 8.0, 50 mM NaCl
# Procedure: (§1) Isothermal titration calorimetry (ITC) experiments were performed using a Nano-ITC (TA-Instruments). OASS was dialyzed at 25°C in 20 mM Tris buffer (pH 8.0) and 50 mM NaCl. Buffer solutions were degassed at room temperature prior to use. […] The heat of dilution for each injection was determined using buffer in the cell. Data obtained from the titration of ligands with OASS were analyzed using either a two-sites binding model (eqn 2)(2) [drawing 2]
# (§2) Qi^tot is total heat after the i^th injection, V0 is the volume of calorimetric cell, K1 and K2 are the observed equilibrium constants for each site, and ΔH1 and ΔH2 are the corresponding enthalpy changes. Estimates of Kobs and ΔH were obtained by fitting the experimental data to the model and the best-fit parameters were selected based on the lowest Chi-squared values.
# [2] = target: T1, HiOASS (O-acetylserine sulfhydrylase); assay: PLP fluorescence titration of ligands with HiOASS; type: binding; design: His tag (N); made in house; host or cells: E. coli BL21(DE3), pET28a(+); conditions: 20 mM Tris pH 8.0
# [3] = target: T2, StOASS (O-acetylserine sulfhydrylase) (Salmonella typhimurium, UniProt P0A1E3); assay: PLP fluorescence titration of ligands with StOASS; type: binding; design: His tag (N); made in house; host or cells: E. coli BL21(DE3), pET28a(+); conditions: for N (number of binding sites) / Qmax (maximum fluorescence quenching at saturation) / ΔG / Kobs / Qmax: 20 mM Tris pH 8.0; for Kd: from K1,obs and K2,obs of the PLP fluorescence titration, read-out: Kd
# Procedure: Titrations of ligands with StOASS were examined by monitoring changes in the active site pyridoxal 5'phosphate (PLP) fluorescence of OASS using a Varian spectrofluorometer. The excitation and emission wavelengths for monitoring PLP signal change upon ligand binding were 412 nm and 507 nm respectively. All experiments were done at 23.0 ± 1°C. Slit widths were set to 5 nm for all experiments and PMT voltage was adjusted to get maximum signal for a given protein concentration. Initial readings of both the sample, Fsamp,0 and buffer, Fbuf,0 were taken, with F0 = Fsamp,0-Fbuf,0 defined as the initial fluorescence of the sample. The sample cuvette was then titrated with aliquots of ligands and mixed, equilibrated for 2-5 minutes before measurement. Data points from five such measurements were averaged to obtain Fave,i. The relative fluorescence quenching upon ligand binding is defined as Qobs,i = (F0-Fobs,i)/F0. All measurements were corrected for dilution, and inner filter effects.
# Binding of ligands to OASS was analyzed to obtain the equilibrium binding constant, Kobs = [PL]/[P]*[L], using a single or two independent site binding models (eqn 1)(1) [drawing 1]
# Where n, number of binding sites, Qobs, observed fluorescence quenching and Qmax, the maximum fluorescence quenching at saturation.
# [4] = target: T2, StOASS (O-acetylserine sulfhydrylase)
# Procedure: as §1, §2
# [5] = from dependence of enthalpy on temperature
# [6] = [NaCl] 0.02 M, similar for each of two sites
# [7] = 10°C, 20 mM Tris pH 8.0, 50 mM NaCl
# [8] = 10°C, 20 mM Tris pH 8.0, 50 mM NaCl, two independent sites model
# [9] = 15°C, 20 mM Tris pH 8.0, 50 mM NaCl
# [10] = 20°C, 20 mM Tris pH 8.0, 50 mM NaCl
# [11] = 25°C, 20 mM Tris pH 8.0, 50 mM NaCl
# [12] = 30°C, 20 mM Tris pH 8.0, 50 mM NaCl
# [13] = 35°C, 20 mM Tris pH 8.0, 50 mM NaCl
# [14] = temperature not stated in the sentence (values match 30°C of Table 1)
# T2 sequence (P0A1E3 whole entry): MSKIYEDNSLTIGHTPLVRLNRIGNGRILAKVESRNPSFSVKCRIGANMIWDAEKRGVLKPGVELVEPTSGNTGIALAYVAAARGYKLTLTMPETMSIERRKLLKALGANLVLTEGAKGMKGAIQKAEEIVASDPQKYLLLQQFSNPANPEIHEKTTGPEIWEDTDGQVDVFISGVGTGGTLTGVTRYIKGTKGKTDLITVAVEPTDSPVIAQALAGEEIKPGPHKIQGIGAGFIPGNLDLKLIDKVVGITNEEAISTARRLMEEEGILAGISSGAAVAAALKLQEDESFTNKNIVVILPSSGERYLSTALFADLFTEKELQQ
# T1 sequence (P45040 whole entry): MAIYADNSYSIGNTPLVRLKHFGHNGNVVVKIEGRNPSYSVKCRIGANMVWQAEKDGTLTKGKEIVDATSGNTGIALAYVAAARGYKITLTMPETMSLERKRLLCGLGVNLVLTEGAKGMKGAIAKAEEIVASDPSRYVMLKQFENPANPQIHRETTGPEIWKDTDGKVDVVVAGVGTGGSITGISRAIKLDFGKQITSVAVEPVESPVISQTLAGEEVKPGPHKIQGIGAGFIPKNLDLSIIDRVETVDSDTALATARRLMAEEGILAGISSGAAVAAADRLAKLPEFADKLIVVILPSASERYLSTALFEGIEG
compound,measurement,setting,value
"N[C@@H](CS)C(=O)O [Cysteine, L-cysteine]",TdS,[1]; 10°C,0.884 kcal/mol
same,ΔG,[1]; 10°C,-1.98 ± 0.096 kcal/mol
same,ΔH,[1]; 10°C,-1.1 ± 0.024 kcal/mol
same,TdS,[1]; 15°C,0.98 kcal/mol
same,ΔG,[1]; 15°C,-2.08 ± 0.048 kcal/mol
same,ΔH,[1]; 15°C,-1.1 ± 0.048 kcal/mol
same,TdS,[1]; 20°C,1.22 kcal/mol
same,ΔG,[1]; 20°C,-2.27 ± 0.12 kcal/mol
same,ΔH,[1]; 20°C,-1.05 ± 0.048 kcal/mol
same,TdS,[1]; 25°C,0.98 kcal/mol
same,ΔG,[1]; 25°C,-2.27 ± 0.12 kcal/mol
same,ΔH,[1]; 25°C,-1.29 ± 0.072 kcal/mol
same,TdS,[1]; 30°C,1.55 kcal/mol
same,ΔG,[1]; 30°C,-2.63 ± 0.072 kcal/mol
same,ΔH,[1]; 30°C,-1.08 ± 0.096 kcal/mol
same,heat capacity change ΔCp,[1]; [5],-12 JK^-1M^-1
same,Kobs,[2]; [NaCl] 0.02 M,6.6 ± 0.1 × 10^2 M^-1
same,N (number of binding sites),[2]; [NaCl] 0.02 M,2
same,Qmax,[2]; [NaCl] 0.02 M,3.9
same,ΔG,[2]; [NaCl] 0.02 M,-3.63 ± 0.024 kcal/mol
same,Kobs,[2]; [NaCl] 0.05 M,5.6 ± 0.1 × 10^2 M^-1
same,N (number of binding sites),[2]; [NaCl] 0.05 M,2
same,Qmax,[2]; [NaCl] 0.05 M,5.7
same,Kobs,[2]; [NaCl] 0.1 M,4.5 ± 0.1 × 10^1 M^-1
same,N (number of binding sites),[2]; [NaCl] 0.1 M,2
same,Qmax,[2]; [NaCl] 0.1 M,5.8
same,ΔG,[2]; [NaCl] 0.1 M,-2.15 ± 0.024 kcal/mol
same,Kobs,[2]; [NaCl] 0.2 M,3.1 ± 0.1 × 10^1 M^-1
same,N (number of binding sites),[2]; [NaCl] 0.2 M,2
same,Qmax,[2]; [NaCl] 0.2 M,5.8
same,ΔG,[2]; [NaCl] 0.2 M,-1.91 ± 0.024 kcal/mol
same,Kobs,[2]; [NaCl] 0.5 M,3.2 ± 0.1 × 10^1 M^-1
same,N (number of binding sites),[2]; [NaCl] 0.5 M,2
same,Qmax,[2]; [NaCl] 0.5 M,3.1
same,ΔG,[2]; [NaCl] 0.5 M,-1.91 ± 0.024 kcal/mol
same,dlogK/dlog [NaCl],[3]; [NaCl] 0.02-0.5 M,~ -0.21 ± 0.1
same,N (number of binding sites),[3]; [NaCl] 0.02 M,2
same,Qmax (maximum fluorescence quenching at saturation),[3]; [NaCl] 0.02 M,3.8
same,ΔG,[3]; [NaCl] 0.02 M,-3.59 ± 0.024 kcal/mol
same,Kobs,[3]; [6],6.0 ± 0.1 × 10^2 M^-1
same,Kobs,"[3]; [NaCl] 0.02 M, similar for each of two sites, listed as cysteine",600 M⁻¹
same,Kobs,[3]; [NaCl] 0.05 M,5.6 ± 0.1 × 10^2 M^-1
same,N (number of binding sites),[3]; [NaCl] 0.05 M,2
same,Qmax,[3]; [NaCl] 0.05 M,4.6
same,ΔG,[3]; [NaCl] 0.05 M,-3.56 ± 0.024 kcal/mol
same,Kobs,[3]; [NaCl] 0.1 M,4.5 ± 0.1 × 10^2 M^-1
same,N (number of binding sites),[3]; [NaCl] 0.1 M,2
same,Qmax,[3]; [NaCl] 0.1 M,4.6
same,ΔG,[3]; [NaCl] 0.1 M,-3.42 ± 0.024 kcal/mol
same,Kobs,[3]; [NaCl] 0.2 M,3.7 ± 0.1 × 10^2 M^-1
same,N (number of binding sites),[3]; [NaCl] 0.2 M,2
same,Qmax,[3]; [NaCl] 0.2 M,4.5
same,ΔG,[3]; [NaCl] 0.2 M,-3.32 ± 0.024 kcal/mol
same,Kobs,[3]; [NaCl] 0.5 M,2.6 ± 0.1 × 10^2 M^-1
same,N (number of binding sites),[3]; [NaCl] 0.5 M,2
same,Qmax,[3]; [NaCl] 0.5 M,4.7
same,ΔG,[3]; [NaCl] 0.5 M,-3.11 ± 0.024 kcal/mol
same,Kd,[3],~1.7 mM
same,TdS,[4]; [7],1.65 kcal/mol
same,ΔH,[4]; [7],-0.645 ± 0.024 kcal/mol
same,ΔG,[4]; [8],-2.29 ± 0.096 kcal/mol
same,TdS,[4]; [9],1.63 kcal/mol
same,ΔG,[4]; [9],-2.29 ± 0.072 kcal/mol
same,ΔH,[4]; [9],-0.669 ± 0.024 kcal/mol
same,TΔS,[4]; 20°C,3.4 kJ/M
same,ΔH,[4]; 20°C,-6.4 ± 0.1 kJ/M
same,TdS,[4]; [10],0.813 kcal/mol
same,ΔG,[4]; [10],-2.34 ± 0.024 kcal/mol
same,ΔH,[4]; [10],-1.53 ± 0.024 kcal/mol
same,TdS,[4]; [11],1.12 kcal/mol
same,ΔG,[4]; [11],-2.53 ± 0.024 kcal/mol
same,ΔH,[4]; [11],-1.41 ± 0.024 kcal/mol
same,TdS,[4]; [12],1.39 kcal/mol
same,ΔG,[4]; [12],-2.44 ± 0.048 kcal/mol
same,ΔH,[4]; [12],-1.05 ± 0.048 kcal/mol
same,TdS,[4]; [13],1.34 kcal/mol
same,ΔG,[4]; [13],-2.63 ± 0.048 kcal/mol
same,ΔH,[4]; [13],-1.29 ± 0.072 kcal/mol
same,net heat capacity change ΔCp,[4]; [5],-130 JK^-1M^-1
"CSCC[C@H](N)C(=O)O [Methionine, L-methionine]",enthalpic contribution to binding free energy,[1],8%
same,TdS,[1]; 10°C,1.7 kcal/mol
same,ΔG,[1]; 10°C,-1.72 ± 0.22 kcal/mol
same,ΔH,[1]; 10°C,-0.048 ± 0.024 kcal/mol
same,ΔG,[1]; 15°C,-1.72 ± 0.22 kcal/mol
same,ΔH,[1]; 15°C,-0.048 ± 0.024 kcal/mol
same,TdS,[1]; 20°C,1.91 kcal/mol
same,ΔG,[1]; 20°C,-1.96 ± 0.239 kcal/mol
same,ΔH,[1]; 20°C,-0.048 ± 0.024 kcal/mol
same,TdS,[1]; 25°C,1.65 kcal/mol
same,ΔG,[1]; 25°C,-1.82 ± 0.263 kcal/mol
same,ΔH,[1]; 25°C,-0.19 ± 0.024 kcal/mol
same,TdS,[1]; 30°C,1.84 kcal/mol
same,ΔG,[1]; 30°C,-2.01 ± 0.239 kcal/mol
same,ΔH,[1]; 30°C,-0.17 ± 0.024 kcal/mol
same,Kobs,[2]; [NaCl] 0.02 M,1.5 ± 0.1 × 10^2 M^-1
same,Qmax,[2]; [NaCl] 0.02 M,3.0
same,ΔG,[2]; [NaCl] 0.02 M,-2.82 ± 0.048 kcal/mol
same,Kobs,[2]; [NaCl] 0.1 M,5.8 ± 0.1 × 10^1 M^-1
same,N (number of binding sites),[2]; [NaCl] 0.1 M,2
same,Qmax,[2]; [NaCl] 0.1 M,0.5
same,ΔG,[2]; [NaCl] 0.1 M,-2.27 ± 0.12 kcal/mol
same,Kobs,[2]; [NaCl] 0.2 M,3.4 ± 0.1 × 10^1 M^-1
same,N (number of binding sites),[2]; [NaCl] 0.2 M,2
same,Qmax,[2]; [NaCl] 0.2 M,0.2
same,ΔG,[2]; [NaCl] 0.2 M,-1.94 ± 0.12 kcal/mol
same,Kobs,[2]; [NaCl] 0.5 M,2.3 ± 0.1 × 10^1 M^-1
same,N (number of binding sites),[2]; [NaCl] 0.5 M,2
same,Qmax,[2]; [NaCl] 0.5 M,0.2
same,ΔG,[2]; [NaCl] 0.5 M,-1.74 ± 0.14 kcal/mol
same,N (number of binding sites),[3]; [NaCl] 0.02 M,2
same,Qmax (maximum fluorescence quenching at saturation),[3]; [NaCl] 0.02 M,3.8
same,ΔG,[3]; [NaCl] 0.02 M,-3.18 ± 0.024 kcal/mol
same,Kobs,[3]; [6],2.9 ± 0.1 × 10^2 M^-1
same,Kobs,"[3]; [NaCl] 0.02 M, similar for each of two sites, listed as methionine",290 M⁻¹
same,Kobs,[3]; [NaCl] 0.1 M,6.5 ± 0.1 × 10^1 M^-1
same,N (number of binding sites),[3]; [NaCl] 0.1 M,2
same,Qmax,[3]; [NaCl] 0.1 M,1.0
same,ΔG,[3]; [NaCl] 0.1 M,-2.39 ± 0.024 kcal/mol
same,Kobs,[3]; [NaCl] 0.2 M,5.5 ± 0.1 × 10^1 M^-1
same,N (number of binding sites),[3]; [NaCl] 0.2 M,2
same,Qmax,[3]; [NaCl] 0.2 M,1.4
same,ΔG,[3]; [NaCl] 0.2 M,-2.25 ± 0.024 kcal/mol
same,Kobs,[3]; [NaCl] 0.5 M,3.5 ± 0.1 × 10^1 M^-1
same,N (number of binding sites),[3]; [NaCl] 0.5 M,2
same,Qmax,[3]; [NaCl] 0.5 M,0.5
same,ΔG,[3]; [NaCl] 0.5 M,-2.08 ± 0.024 kcal/mol
same,Kd,[3],~3.4 mM
same,ΔH,"[4]; 25 mM HEPES, pH 8.0, 50 mM NaCl, 25°C",-0.4 ± 0.1 kJ/M
same,TdS,[4]; [7],1.74 kcal/mol
same,ΔH,[4]; [7],-0.311 ± 0.024 kcal/mol
same,ΔG,[4]; [8],-2.06 ± 0.19 kcal/mol
same,TdS,[4]; [9],1.72 kcal/mol
same,ΔG,[4]; [9],-2.06 ± 0.096 kcal/mol
same,ΔH,[4]; [9],-0.335 ± 0.024 kcal/mol
same,TΔS,[4]; 20°C,8.2 kJ/M
same,ΔH,[4]; 20°C,-1.5 ± 0.1 kJ/M
same,TdS,[4]; [10],1.96 kcal/mol
same,ΔG,[4]; [10],-2.32 ± 0.12 kcal/mol
same,ΔH,[4]; [10],-0.359 ± 0.024 kcal/mol
same,TdS,[4]; [11],2.06 kcal/mol
same,ΔG,[4]; [11],-2.27 ± 0.12 kcal/mol
same,ΔH,[4]; [11],-0.22 ± 0.024 kcal/mol
same,TdS,[4]; [12],2.25 kcal/mol
same,ΔG,[4]; [12],-2.49 ± 0.19 kcal/mol
same,ΔH,[4]; [12],-0.239 ± 0.024 kcal/mol
same,TdS,[4]; [13],2.41 kcal/mol
same,ΔG,[4]; [13],-2.7 ± 0.311 kcal/mol
same,ΔH,[4]; [13],-0.287 ± 0.024 kcal/mol
same,net enthalpic contribution to total binding free energy,[4]; temperature not given,~ 10%
same,ΔG,[4]; [14],-10.4 kJ/M
same,ΔH,[4]; [14],-1.0 ± 0.2 kJ/M
